The values that follow come from patent publication US9315508B2, “Treating diabetes with dipeptidyl peptidase-IV inhibitors” (Merck Sharp & Dohme Corp., priority 2012, dated 2016).

A value given as a limit tells only on which side of the number the result lay.

The target in experiment [1] is dipeptidyl peptidase-IV enzyme (DPP-4) (Homo sapiens (Human), UniProt P27487). As to the kind of experiment: continuous fluorometric DPP-4 inhibition assay with substrate Gly-Pro-AMC. The following applies: soluble human DPP-4, Gly-Pro-AMC substrate. The format is biochemical. As for the experimental part: Inhibition constants are determined as follows. A continuous fluorometric assay is employed with the substrate Gly-Pro-AMC, which is cleaved by DPP-4 to release the fluorescent AMC leaving group. The kinetic parameters that describe this reaction are as follows: Km=50 μM; kcat=75 s^−1; kcat/Km=1.5×10^6 M^−1s^−1. A typical reaction contains approximately […], 50 μM Gly-Pro-AMC, and buffer (100 mM HEPES, pH 7.5, 0.1 mg/ml BSA) in a total reaction volume of 100 μL. Liberation of AMC is monitored continuously in a 96-well plate fluorometer using an excitation wavelength of 360 nm and an emission wavelength of 460 nm. Under these conditions, approximately 0.8 μM AMC is produced in 30 minutes at 25 degrees C. The enzyme used in these studies was soluble (transmembrane domain and cytoplasmic extension excluded) human protein produced in a baculovirus expression system (Bac-To-Bac, Gibco BRL). […] To measure the dissociation constants for compounds, solutions of inhibitor in DMSO were added to reactions containing enzyme and substrate (final DMSO concentration is 1%). All experiments were conducted at room temperature using the standard reaction conditions described above. To determine the dissociation constants (Ki), reaction rates were fit by non-linear regression to the Michaelis-Menton equation for competitive inhibition. The errors in reproducing the dissociation constants are typically less than two-fold.

The test system of experiment [2] is rats. The conditions noted are these: doubled from day 7 to day 14; cited from earlier work.
Experiment [3] concerns mouse. The following applies: mouse model of cyclophosphamide-induced neutropenia; cited from earlier work.
Experiment [4] addresses DPP-4 (Homo sapiens (Human), UniProt P27487). The following applies: cited from earlier work.

Sequence of dipeptidyl peptidase-IV enzyme (DPP-4) (P27487 29-766): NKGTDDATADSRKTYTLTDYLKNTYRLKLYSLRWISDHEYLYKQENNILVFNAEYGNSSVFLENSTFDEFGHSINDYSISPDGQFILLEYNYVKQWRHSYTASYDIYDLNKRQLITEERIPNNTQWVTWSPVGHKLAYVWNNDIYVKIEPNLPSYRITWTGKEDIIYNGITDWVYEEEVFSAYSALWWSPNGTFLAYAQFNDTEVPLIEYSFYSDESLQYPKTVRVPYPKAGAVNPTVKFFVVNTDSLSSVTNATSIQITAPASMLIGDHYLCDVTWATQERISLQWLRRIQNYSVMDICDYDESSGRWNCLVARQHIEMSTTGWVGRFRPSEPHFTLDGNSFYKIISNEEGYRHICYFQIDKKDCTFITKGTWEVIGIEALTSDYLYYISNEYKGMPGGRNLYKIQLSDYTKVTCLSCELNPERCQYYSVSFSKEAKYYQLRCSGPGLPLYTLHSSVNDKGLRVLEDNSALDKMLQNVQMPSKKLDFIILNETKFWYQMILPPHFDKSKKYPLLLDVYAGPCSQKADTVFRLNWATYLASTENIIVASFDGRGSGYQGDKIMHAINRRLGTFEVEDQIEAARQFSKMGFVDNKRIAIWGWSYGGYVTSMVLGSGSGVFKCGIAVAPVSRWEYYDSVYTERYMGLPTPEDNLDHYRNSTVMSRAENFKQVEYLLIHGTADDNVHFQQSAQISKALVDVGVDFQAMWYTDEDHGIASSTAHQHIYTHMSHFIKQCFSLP
Sequence of DPP-4 (P27487 39-766, species assumed): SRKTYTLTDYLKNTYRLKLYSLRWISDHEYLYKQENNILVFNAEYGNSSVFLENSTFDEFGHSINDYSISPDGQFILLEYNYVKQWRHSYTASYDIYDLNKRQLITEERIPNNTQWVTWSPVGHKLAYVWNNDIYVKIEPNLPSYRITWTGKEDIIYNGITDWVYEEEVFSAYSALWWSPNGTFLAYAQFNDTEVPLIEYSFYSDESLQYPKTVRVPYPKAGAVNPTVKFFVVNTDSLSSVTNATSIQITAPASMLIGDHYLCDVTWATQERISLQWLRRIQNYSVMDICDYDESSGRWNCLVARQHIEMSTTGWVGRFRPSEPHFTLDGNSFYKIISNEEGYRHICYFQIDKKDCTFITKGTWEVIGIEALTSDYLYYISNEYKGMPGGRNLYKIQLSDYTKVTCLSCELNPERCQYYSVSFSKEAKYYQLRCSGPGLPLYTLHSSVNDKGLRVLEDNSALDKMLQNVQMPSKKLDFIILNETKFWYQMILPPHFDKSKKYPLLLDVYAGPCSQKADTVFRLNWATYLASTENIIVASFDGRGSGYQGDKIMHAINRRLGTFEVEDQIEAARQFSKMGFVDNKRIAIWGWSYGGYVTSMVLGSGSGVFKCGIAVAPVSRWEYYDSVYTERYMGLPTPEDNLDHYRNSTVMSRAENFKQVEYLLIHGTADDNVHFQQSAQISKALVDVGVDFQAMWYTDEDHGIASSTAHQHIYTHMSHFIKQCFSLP

By IC50 is commonly meant the point on the concentration scale where inhibition reaches its midpoint. A higher IC50 goes with lower potency. `N[C@H]1CC(N2Cc3c[nH]nc3C2)c2ccccc2[C@@H]1c1cc(F)ccc1F` (stereo partly drawn) [Example 1] showed a half-inhibitory concentration (IC50) in experiment [1] above 1000 nM.
Regarding `CS(=O)(=O)n1cc2c(n1)CN([C@@H]1C[C@H](N)[C@@H](c3cc(F)ccc3F)[C@H]3CC13)C2` (stereo partly drawn) [Example 2], in experiment [1], the concentration for half-maximal inhibition (IC50) amounted to 9 nM.
`CS(=O)(=O)n1cc2c(n1)CN([C@@H]1C[C@H](N)[C@@H](c3cc(F)ccc3F)[C@@H]3C[C@@H]31)C2` [Example 3] had a half-inhibitory concentration (IC50) in experiment [1] of 5.4 nM.
On to `CC(C)N1CCC(c2ccccc2)(c2ccccc2)CC1` [Prodipine, Pro-Pro-diphenyl-phosphonate], for which the cardiac allograft survival in experiment [2] was 14 day.
On to `CC(C)[C@H](N)C(=O)N1CCC[C@H]1B(O)O` [Val-Boro-Pro], for which, in experiment [3], the hematopoiesis result is listed as “stimulated hematopoiesis”.
`CC[C@H](C)[C@H](N)C(=O)N1CCC[C@H]1C(=O)N[C@H](C(=O)O)[C@@H](C)CC` [diprotin A]: the “degradation of GRF in plasma to GRF[3-44]” value in experiment [4] is “prevented”.
